Laboratory results reported in publication PMC5428509, “Irreversible inhibition of BTK kinase by a novel highly selective inhibitor CHMFL-BTK-11 suppresses inflammatory response in rheumatoid arthritis model” (Scientific Reports, 2017).

Key:
Test in all cases: biochemical
Parameters in all cases: KinomeScan competition binding panel (DiscoveRx), percent of control at 1 uM
Settings in all cases: read-out: Percent Control
STK36 = STK36 (Homo sapiens, UniProt Q9NRP7)
How it was run: (§1)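 Selectivity profiled across 456 kinases/mutants by KinomeScan binding technology.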

MYO3B = MYO3B (Homo sapiens, UniProt Q8WXR4)
How it was run: as §1

EPHB6 = EPHB6 (Homo sapiens, UniProt O15197)
How it was run: as §1

MAP3K15 = MAP3K15 (Homo sapiens, UniProt Q6ZN16)
How it was run: as §1

STK33 = STK33 (Homo sapiens, UniProt Q9BYT3)
How it was run: as §1

DYRK1A = DYRK1A (Homo sapiens, UniProt Q13627)
How it was run: as §1

PIK3CA(H1047Y) = PIK3CA(H1047Y) (Homo sapiens, UniProt P42336, H1047Y)
How it was run: as §1

NEK6 = NEK6 (Homo sapiens, UniProt Q9HC98)
How it was run: as §1

ACVR1B = ACVR1B (Homo sapiens, UniProt P36896)
How it was run: as §1

MAP3K4 = MAP3K4 (Homo sapiens, UniProt Q9Y6R4)
How it was run: as §1

CDK11 = target: T1, CDK11 (Homo sapiens, UniProt Q9BWU1)
T1 construct: gene CDK19
How it was run: as §1

CAMK1 = CAMK1 (Homo sapiens, UniProt Q14012)
How it was run: as §1

CSNK1A1L = CSNK1A1L (Homo sapiens, UniProt Q8N752)
How it was run: as §1

MARK2 = MARK2 (Homo sapiens, UniProt Q7KZI7)
How it was run: as §1

FLT3 = FLT3 (Homo sapiens, UniProt P36888)
How it was run: as §1

IKK-beta = target: T2, IKK-beta (Homo sapiens, UniProt O14920)
T2 construct: gene IKBKB
How it was run: as §1

DAPK1 = DAPK1 (Homo sapiens, UniProt P53355)
How it was run: as §1

TAOK2 = TAOK2 (Homo sapiens, UniProt Q9UL54)
How it was run: as §1

PIP5K2B = target: T3, PIP5K2B (Homo sapiens, UniProt P78356)
T3 construct: gene PIP4K2B
How it was run: as §1

EGFR(S752-I759del) = EGFR(S752-I759del) (Homo sapiens, UniProt P00533, DEL752-759)
How it was run: as §1

EGFR(L747-T751del,Sins) = EGFR(L747-T751del,Sins) (Homo sapiens, UniProt P00533, DEL747-750/T751S)
How it was run: as §1

SRPK3 = SRPK3 (Homo sapiens, UniProt Q9UPE1)
How it was run: as §1

PLK3 = PLK3 (Homo sapiens, UniProt Q9H4B4)
How it was run: as §1

MST1 = target: T4, MST1 (Homo sapiens, UniProt Q13043)
T4 construct: gene STK4
How it was run: as §1

PIK3CA(E542K) = PIK3CA(E542K) (Homo sapiens, UniProt P42336, E542K)
How it was run: as §1

Chain of TAOK2 (Q9UL54 whole entry): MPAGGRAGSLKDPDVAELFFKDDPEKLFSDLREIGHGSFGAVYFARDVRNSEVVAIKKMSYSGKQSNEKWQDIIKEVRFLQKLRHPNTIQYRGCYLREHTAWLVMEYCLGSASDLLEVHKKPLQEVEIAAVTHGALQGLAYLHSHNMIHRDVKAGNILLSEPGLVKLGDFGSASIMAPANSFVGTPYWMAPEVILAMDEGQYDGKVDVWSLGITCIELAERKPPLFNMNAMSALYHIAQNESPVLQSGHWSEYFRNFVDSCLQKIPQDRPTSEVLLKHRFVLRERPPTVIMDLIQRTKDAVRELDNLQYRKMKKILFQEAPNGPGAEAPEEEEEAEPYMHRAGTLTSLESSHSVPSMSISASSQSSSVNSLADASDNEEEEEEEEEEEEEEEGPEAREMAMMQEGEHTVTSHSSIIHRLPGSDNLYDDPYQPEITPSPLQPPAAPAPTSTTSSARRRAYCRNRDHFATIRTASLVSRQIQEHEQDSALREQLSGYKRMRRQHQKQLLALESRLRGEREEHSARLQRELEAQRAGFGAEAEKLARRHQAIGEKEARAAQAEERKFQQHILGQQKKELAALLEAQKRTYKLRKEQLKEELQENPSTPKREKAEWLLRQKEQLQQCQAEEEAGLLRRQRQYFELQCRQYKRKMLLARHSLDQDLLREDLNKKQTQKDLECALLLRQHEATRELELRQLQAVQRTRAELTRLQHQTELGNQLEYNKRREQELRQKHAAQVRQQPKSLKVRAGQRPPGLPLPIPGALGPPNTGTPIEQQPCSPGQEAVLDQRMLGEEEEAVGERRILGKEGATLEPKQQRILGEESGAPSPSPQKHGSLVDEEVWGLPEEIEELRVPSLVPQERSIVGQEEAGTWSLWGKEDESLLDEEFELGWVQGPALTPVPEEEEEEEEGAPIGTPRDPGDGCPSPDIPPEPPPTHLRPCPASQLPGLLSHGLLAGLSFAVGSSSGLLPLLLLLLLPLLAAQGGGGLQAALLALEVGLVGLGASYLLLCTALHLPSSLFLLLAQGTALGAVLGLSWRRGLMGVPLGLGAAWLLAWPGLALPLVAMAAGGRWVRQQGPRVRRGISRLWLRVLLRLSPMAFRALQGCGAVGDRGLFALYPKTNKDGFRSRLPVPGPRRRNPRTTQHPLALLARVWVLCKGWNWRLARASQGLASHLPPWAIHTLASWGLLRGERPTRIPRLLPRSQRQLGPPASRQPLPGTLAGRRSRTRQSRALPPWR
Chain of PIK3CA(H1047Y) (P42336 whole entry H1047Y): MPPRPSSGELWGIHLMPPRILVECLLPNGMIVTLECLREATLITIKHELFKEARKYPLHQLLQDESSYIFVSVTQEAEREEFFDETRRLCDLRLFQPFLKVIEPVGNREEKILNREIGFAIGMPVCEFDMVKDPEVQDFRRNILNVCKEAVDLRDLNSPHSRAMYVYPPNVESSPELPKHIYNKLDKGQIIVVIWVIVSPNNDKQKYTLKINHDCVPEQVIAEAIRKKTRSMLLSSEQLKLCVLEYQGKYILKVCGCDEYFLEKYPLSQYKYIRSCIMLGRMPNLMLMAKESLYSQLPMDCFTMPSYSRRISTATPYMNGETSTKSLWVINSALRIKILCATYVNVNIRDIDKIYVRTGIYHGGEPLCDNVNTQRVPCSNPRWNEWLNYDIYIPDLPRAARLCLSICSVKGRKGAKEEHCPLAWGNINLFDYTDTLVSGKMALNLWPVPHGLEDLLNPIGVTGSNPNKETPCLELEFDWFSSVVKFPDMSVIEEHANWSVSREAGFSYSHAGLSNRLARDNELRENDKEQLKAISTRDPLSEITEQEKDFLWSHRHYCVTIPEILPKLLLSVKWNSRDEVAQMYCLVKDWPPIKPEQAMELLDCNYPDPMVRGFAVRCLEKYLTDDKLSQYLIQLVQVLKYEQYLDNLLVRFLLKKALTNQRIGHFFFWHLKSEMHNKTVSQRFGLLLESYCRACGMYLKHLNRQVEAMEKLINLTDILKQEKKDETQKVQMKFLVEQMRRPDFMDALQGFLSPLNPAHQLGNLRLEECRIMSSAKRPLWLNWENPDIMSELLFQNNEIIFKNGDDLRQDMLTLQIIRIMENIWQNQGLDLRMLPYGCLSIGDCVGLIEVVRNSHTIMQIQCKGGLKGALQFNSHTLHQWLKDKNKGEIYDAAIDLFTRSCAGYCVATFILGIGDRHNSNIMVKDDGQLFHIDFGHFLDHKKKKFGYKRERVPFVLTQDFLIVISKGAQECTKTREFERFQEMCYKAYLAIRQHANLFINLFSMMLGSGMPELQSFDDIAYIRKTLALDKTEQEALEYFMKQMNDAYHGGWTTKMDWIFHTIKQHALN
Chain of EPHB6 (O15197 whole entry): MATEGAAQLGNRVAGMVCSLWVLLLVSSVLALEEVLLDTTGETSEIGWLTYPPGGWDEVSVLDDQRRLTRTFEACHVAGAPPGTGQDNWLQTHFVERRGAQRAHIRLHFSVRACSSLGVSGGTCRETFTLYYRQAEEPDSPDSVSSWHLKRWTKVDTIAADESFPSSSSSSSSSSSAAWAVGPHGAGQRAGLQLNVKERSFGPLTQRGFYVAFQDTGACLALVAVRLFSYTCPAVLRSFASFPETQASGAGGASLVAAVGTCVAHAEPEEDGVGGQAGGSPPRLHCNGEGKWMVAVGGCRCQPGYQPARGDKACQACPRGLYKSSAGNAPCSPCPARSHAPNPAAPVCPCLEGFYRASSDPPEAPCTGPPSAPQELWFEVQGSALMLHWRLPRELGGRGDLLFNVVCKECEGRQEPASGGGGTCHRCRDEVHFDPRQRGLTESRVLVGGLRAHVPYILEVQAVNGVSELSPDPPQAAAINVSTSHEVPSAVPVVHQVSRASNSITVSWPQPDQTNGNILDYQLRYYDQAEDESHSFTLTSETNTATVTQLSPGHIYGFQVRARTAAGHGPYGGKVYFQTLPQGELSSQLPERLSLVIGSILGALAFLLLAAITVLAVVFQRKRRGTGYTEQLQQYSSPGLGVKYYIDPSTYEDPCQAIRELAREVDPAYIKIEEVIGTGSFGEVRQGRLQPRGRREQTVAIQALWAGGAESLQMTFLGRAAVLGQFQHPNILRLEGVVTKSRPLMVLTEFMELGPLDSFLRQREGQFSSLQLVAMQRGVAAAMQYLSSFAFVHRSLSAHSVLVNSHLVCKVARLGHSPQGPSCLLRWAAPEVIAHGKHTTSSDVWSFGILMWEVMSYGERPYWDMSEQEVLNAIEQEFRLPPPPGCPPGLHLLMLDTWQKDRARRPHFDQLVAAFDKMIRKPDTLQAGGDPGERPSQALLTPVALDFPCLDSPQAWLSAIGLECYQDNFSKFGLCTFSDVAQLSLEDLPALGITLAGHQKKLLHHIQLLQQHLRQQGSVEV
Chain of SRPK3 (Q9UPE1 whole entry): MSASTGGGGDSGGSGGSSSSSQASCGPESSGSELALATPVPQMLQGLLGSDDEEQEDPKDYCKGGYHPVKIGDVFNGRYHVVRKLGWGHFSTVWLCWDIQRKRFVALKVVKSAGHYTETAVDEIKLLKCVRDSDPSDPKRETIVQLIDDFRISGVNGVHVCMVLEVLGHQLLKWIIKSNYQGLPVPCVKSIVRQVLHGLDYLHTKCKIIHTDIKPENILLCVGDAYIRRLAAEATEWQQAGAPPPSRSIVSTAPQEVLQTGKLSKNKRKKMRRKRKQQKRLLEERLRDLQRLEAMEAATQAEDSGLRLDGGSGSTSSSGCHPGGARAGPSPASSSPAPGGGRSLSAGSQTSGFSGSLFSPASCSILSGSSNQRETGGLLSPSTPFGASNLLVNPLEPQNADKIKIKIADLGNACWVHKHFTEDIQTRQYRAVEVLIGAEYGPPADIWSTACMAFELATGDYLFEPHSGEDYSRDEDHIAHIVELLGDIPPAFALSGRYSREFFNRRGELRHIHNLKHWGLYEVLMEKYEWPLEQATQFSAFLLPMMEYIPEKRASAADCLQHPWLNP
T2 sequence (O14920 whole entry): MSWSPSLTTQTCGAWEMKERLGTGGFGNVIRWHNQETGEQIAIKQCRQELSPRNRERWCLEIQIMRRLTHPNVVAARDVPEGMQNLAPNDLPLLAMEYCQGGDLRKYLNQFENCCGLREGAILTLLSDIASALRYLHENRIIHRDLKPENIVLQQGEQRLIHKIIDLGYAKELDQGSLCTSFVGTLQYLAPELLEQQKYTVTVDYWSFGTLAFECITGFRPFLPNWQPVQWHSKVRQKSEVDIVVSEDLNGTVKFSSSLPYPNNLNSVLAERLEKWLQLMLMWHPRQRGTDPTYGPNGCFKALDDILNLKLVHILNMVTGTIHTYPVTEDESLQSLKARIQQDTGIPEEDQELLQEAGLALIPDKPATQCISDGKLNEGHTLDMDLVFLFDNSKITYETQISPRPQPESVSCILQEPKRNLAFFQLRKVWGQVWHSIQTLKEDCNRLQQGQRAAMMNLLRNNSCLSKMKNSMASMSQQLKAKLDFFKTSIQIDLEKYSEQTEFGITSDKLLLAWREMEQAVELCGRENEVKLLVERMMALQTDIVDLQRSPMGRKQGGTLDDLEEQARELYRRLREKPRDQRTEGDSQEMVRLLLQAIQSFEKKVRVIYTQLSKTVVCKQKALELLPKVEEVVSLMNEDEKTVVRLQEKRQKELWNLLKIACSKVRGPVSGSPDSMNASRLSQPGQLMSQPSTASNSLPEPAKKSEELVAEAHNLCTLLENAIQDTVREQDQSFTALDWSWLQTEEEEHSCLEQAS
Chain of PIK3CA(E542K) (P42336 whole entry E542K): as the sequence (P42336 whole entry H1047Y) above, with E542K, Y1047H counted along it
Chain of CSNK1A1L (Q8N752 whole entry): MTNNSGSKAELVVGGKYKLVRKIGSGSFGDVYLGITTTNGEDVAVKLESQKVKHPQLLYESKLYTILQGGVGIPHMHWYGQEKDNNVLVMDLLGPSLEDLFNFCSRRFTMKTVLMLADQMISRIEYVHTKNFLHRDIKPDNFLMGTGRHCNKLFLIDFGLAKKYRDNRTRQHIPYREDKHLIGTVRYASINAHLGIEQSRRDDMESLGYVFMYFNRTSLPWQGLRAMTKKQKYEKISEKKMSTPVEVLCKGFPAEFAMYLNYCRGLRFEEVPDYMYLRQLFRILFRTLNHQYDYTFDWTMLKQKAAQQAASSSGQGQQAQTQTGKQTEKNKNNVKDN

C=CC(=O)Nc1cc(-n2c(=O)ccc3cnc4ccc(-n5cccn5)cc4c32)ccc1C [CHMFL-BTK-11]
remaining binding at 1 µM (STK36): 97%
remaining binding at 1 µM (MYO3B): 90%
remaining binding at 1 µM (EPHB6): 87%
remaining binding at 1 µM (MAP3K15): 80%
remaining binding at 1 µM (STK33): 89%
remaining binding at 1 µM (DYRK1A): 100%
remaining binding at 1 µM (PIK3CA(H1047Y)): 82%
remaining binding at 1 µM (NEK6): 100%
remaining binding at 1 µM (ACVR1B): 100%
remaining binding at 1 µM (MAP3K4): 97%
remaining binding at 1 µM (CDK11): 89%
remaining binding at 1 µM (CAMK1): 98%
remaining binding at 1 µM (CSNK1A1L): 100%
remaining binding at 1 µM (MARK2): 92%
remaining binding at 1 µM (FLT3): 100%
remaining binding at 1 µM (IKK-beta): 86%
remaining binding at 1 µM (DAPK1): 100%
remaining binding at 1 µM (TAOK2): 91%
remaining binding at 1 µM (PIP5K2B): 100%
remaining binding at 1 µM (EGFR(S752-I759del)): 58%
remaining binding at 1 µM (EGFR(L747-T751del,Sins)): 77%
remaining binding at 1 µM (SRPK3): 96%
remaining binding at 1 µM (PLK3): 100%
remaining binding at 1 µM (MST1): 100%
remaining binding at 1 µM (PIK3CA(E542K)): 91%
